{"source": "patent US11690854B2", "about": "“Methods of treating heavy menstrual bleeding” (priority 2018, dated 2023)", "tested_on": "premenopausal women with endometriosis with associated pain", "test": "Phase 3 Studies EM-I and EM-II together, with extension studies", "type": "in vivo, human", "conditions": "for Patients with Z-score below the normal lower bound of −2.0: following 12 months of treatment; for Patients with asymptomatic elevations of serum ALT to at least 3-times the upper limit of the reference range: placebo 1/696, 0.1%", "excerpt": "Each placebo-controlled study assessed the reduction in endometriosis-associated pain over 6 months of treatment. More than 75 percent of women who completed Study EM-I and EM-II enrolled in the extension studies for an additional 6 month treatment period. Subjects were followed for up to 12 months post-treatment. Women in these studies also provided a daily self-assessment of their endometriosis pain using the Numeric Rating Scale (NRS), on a scale ranging from 0 (no pain) to 10 (worst pain ever). […] The population age range was 18-49 years old. Women who completed six months of treatment and met eligibility criteria continued treatment in two blinded six-month extension studies, for a total treatment duration of up to 12 months. In the placebo-controlled and extension clinical studies, BMD was measured by DXA. Changes observed in BMD at other anatomical sites (femoral neck, total hip) were generally smaller than lumbar spine.", "data": [{"compound": "COc1cccc(-c2c(C)n(Cc3c(F)cccc3C(F)(F)F)c(=O)n(C[C@H](NCCCC(=O)O)c3ccccc3)c2=O)c1F", "note": "[Elagolix, 4-((R)-2-[5-(2-fluoro-3-methoxy-phenyl)-3-(2-fluoro-6-trifluoromethyl-benzyl)-4-methyl-2,6-dioxo-3,6-dihydro-2H-pyrimidin-1-yl]-1-phenyl-ethylamino)-butyric acid]", "values": [{"measurement": "% Subjects with lumbar spine Z-score ≤−1.5", "setting": "150 mg QD, on treatment Month 6, N 360", "value": 0.8, "unit": "%"}, {"measurement": "Mean Percent Change from baseline in lumbar spine bone mineral density", "setting": "150 mg QD, on treatment Month 6, N 360, 95% CI −0.79, −0.26", "value": "−0.52", "unit": "%"}, {"measurement": "% Subjects with lumbar spine Z-score ≤−1.5", "setting": "150 mg QD, on treatment Month 12, N 235", "value": 1.3, "unit": "%"}, {"measurement": "Mean Percent Change from baseline in lumbar spine bone mineral density", "setting": "150 mg QD, on treatment Month 12, N 235, 95% CI −1.29, −0.45", "value": "−0.87", "unit": "%"}, {"measurement": "Estradiol level (suppression to)", "setting": "150 mg QD, partial suppression", "value": "approximately 50 pg/mL"}, {"measurement": "Patients with Z-score below the normal lower bound of −2.0", "setting": "150 mg daily dose", "value": "no patient"}, {"measurement": "Patients with asymptomatic elevations of serum ALT to at least 3-times the upper limit of the reference range", "setting": "150 mg once daily, 1/450", "value": 0.2, "unit": "%"}, {"measurement": "Incidence of amenorrhea (no bleeding or spotting in a 56-day interval)", "setting": "150 mg once daily, first six months of treatment, placebo less than 1%", "value": "6-17%"}, {"measurement": "Incidence of amenorrhea (no bleeding or spotting in a 56-day interval)", "setting": "150 mg once daily, second 6 months of treatment", "value": "11-15%"}, {"measurement": "Discontinuations due to hot flush", "setting": "200 mg BID", "value": 2.5, "unit": "%"}, {"measurement": "Discontinuations due to nausea", "setting": "200 mg BID", "value": 1.5, "unit": "%"}, {"measurement": "Percentage of patients with adverse reaction: Anxiety", "setting": "200 mg BID, N = 477, placebo 3", "value": 5, "unit": "%"}, {"measurement": "Percentage of patients with adverse reaction: Arthralgia", "setting": "200 mg BID, N = 477, placebo 3", "value": 5, "unit": "%"}, {"measurement": "Percentage of patients with adverse reaction: Insomnia", "setting": "200 mg BID, N = 477, placebo 3", "value": 9, "unit": "%"}, {"measurement": "Percentage of patients with adverse reaction: Nasopharyngitis", "setting": "200 mg BID, N = 477, placebo 4", "value": 6, "unit": "%"}, {"measurement": "Percentage of patients with adverse reaction: Sinusitis", "setting": "200 mg BID, N = 477, placebo 4", "value": 6, "unit": "%"}, {"measurement": "Percentage of patients with adverse reaction: Upper Respiratory Tract Infection", "setting": "200 mg BID, N = 477, placebo 5", "value": 4, "unit": "%"}, {"measurement": "Percentage of patients with adverse reaction: Hot Flush", "setting": "200 mg BID, N = 477, placebo 9", "value": 45, "unit": "%"}, {"measurement": "Percentage of patients with adverse reaction: Headache", "setting": "200 mg BID, N = 477, placebo 12", "value": 20, "unit": "%"}, {"measurement": "Percentage of patients with adverse reaction: Nausea", "setting": "200 mg BID, N = 477, placebo 13", "value": 16, "unit": "%"}, {"measurement": "Percentage of patients with adverse reaction: Amenorrhoea", "setting": "200 mg BID, N = 477, placebo <1", "value": 7, "unit": "%"}, {"measurement": "Mean increase from pretreatment baseline in HDL-C", "setting": "200 mg BID, 6-month treatment", "value": 4.16, "unit": "mg/dL"}, {"measurement": "Mean increase from pretreatment baseline in LDL-C", "setting": "200 mg BID, 6-month treatment", "value": 13.10, "unit": "mg/dL"}, {"measurement": "Mean increase from pretreatment baseline in triglycerides", "setting": "200 mg BID, 6-month treatment", "value": 11.08, "unit": "mg/dL"}, {"measurement": "Patients who discontinued therapy due to adverse reactions", "setting": "200 mg BID, EM-I and EM-II", "value": 9.6, "unit": "%"}, {"measurement": "Percent change from baseline of averaged daily opioid pills (FIG. A-5)", "setting": "200 mg BID, compared with placebo", "value": "significant decrease from baseline in the percent change of averaged daily opioid pills at Months 3 through 6"}, {"measurement": "Patients with Z-score below the normal lower bound of −2.0", "setting": "200 mg BID", "value": "less than 1%"}, {"measurement": "Estradiol level (suppression to)", "setting": "200 mg BID, nearly full suppression", "value": "approximately 12 pg/mL"}, {"measurement": "% Subjects with lumbar spine Z-score ≤−1.5", "setting": "200 mg BID, on treatment Month 6, N 365", "value": 4.1, "unit": "%"}, {"measurement": "Mean Percent Change from baseline in lumbar spine bone mineral density", "setting": "200 mg BID, on treatment Month 6, N 365, 95% CI −2.81, −2.28", "value": "−2.54", "unit": "%"}, {"measurement": "% Subjects with lumbar spine Z-score ≤−1.5", "setting": "200 mg BID, on treatment Month 12, N 217", "value": 5.1, "unit": "%"}, {"measurement": "Mean Percent Change from baseline in lumbar spine bone mineral density", "setting": "200 mg BID, on treatment Month 12, N 217, 95% CI −4.19, −3.32", "value": "−3.76", "unit": "%"}, {"measurement": "Suicidal ideation, %", "setting": "200 mg Twice Daily (N = 477)", "value": "(0.2) %"}, {"measurement": "Depressed Mood, depression, depressive symptoms and or tearfulness, %", "setting": "200 mg Twice Daily (N = 477), placebo 2.3", "value": "(6.1) %"}, {"measurement": "Mood altered, mood swings, %", "setting": "200 mg Twice Daily (N = 477), placebo 3.4", "value": "(5.2) %"}, {"measurement": "Mean Intensity score (1 = spotting to 4 = heavy)", "setting": "200 mg Twice Daily, Month 3, baseline 2.5, placebo 2.6 to 2.4", "value": 2.0}, {"measurement": "Mean bleeding/spotting days in prior 28 days", "setting": "200 mg Twice Daily, Month 3, baseline 5.7, placebo 5.4 to 4.6", "value": 0.8, "unit": "days"}, {"measurement": "Patients with asymptomatic elevations of serum ALT to at least 3-times the upper limit of the reference range", "setting": "200 mg twice daily, 5/443", "value": 1.1, "unit": "%"}, {"measurement": "Incidence of amenorrhea (no bleeding or spotting in a 56-day interval)", "setting": "200 mg twice daily, first six months of treatment, placebo less than 1%", "value": "13-52%"}, {"measurement": "Incidence of amenorrhea (no bleeding or spotting in a 56-day interval)", "setting": "200 mg twice daily, second 6 months of treatment", "value": "46-57%"}, {"measurement": "Percentage of days in which rescue opioid medication was taken", "setting": "150 QD and 200 BID, pooled analysis, compared with placebo", "value": "significant reduction in the percentage of days in which rescue opioid medication was taken"}, {"measurement": "Mean decreases from Baseline in dysmenorrhea scores", "setting": "both treatment groups (150 mg QD, 200 mg BID)", "value": "statistically significantly greater than placebo beginning at Month 1 and persisted through Month 6"}, {"measurement": "BMD after stopping treatment", "setting": "both treatment groups, lumbar spine, total hip and femoral neck, post-treatment months 6 and 12", "value": "progressive recovery of BMD"}, {"measurement": "Durability of improvement in extension studies EM-III and EM-IV", "setting": "patients maintained on their dose", "value": "durability of improvement in dysmenorrhea, NMPP and dyspareunia was demonstrated for a total of 12 months"}]}]}
